In article PMC11851430, “Workflow for E3 Ligase Ligand Validation for PROTAC Development” (ACS Chemical Biology, 2025):

How the values were obtained:
ITK = target: T1, ITK (Homo sapiens, UniProt Q08881); test: Western blot assay; assay type: cell-based; settings: Jurkat cells, 6 h
T1 construct: endogenous in cells; host or cells: Jurkat
T1 sequence (Q08881 1-620): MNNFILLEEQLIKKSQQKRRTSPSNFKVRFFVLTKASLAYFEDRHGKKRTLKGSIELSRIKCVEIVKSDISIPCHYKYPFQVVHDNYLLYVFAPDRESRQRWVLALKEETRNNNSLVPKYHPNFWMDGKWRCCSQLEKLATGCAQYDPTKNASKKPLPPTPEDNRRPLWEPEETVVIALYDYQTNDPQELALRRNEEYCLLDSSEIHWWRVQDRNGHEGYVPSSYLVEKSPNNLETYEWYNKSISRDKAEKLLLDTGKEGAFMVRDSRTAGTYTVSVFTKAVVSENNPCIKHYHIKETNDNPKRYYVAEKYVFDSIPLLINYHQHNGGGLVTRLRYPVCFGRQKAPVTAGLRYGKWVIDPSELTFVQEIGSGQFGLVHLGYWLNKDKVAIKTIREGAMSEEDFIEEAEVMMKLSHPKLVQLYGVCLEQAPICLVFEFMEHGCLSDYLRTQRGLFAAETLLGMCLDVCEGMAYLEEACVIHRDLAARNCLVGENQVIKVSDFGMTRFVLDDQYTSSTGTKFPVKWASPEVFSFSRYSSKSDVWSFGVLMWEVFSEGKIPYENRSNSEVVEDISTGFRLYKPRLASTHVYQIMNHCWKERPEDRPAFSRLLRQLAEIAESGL
Method: (§1) Two mL of Jurkat cells were seeded into 6 well plates (Greiner) at a density of 5·10 5 cells/mL.
(§2) The following day, cells were treated with compounds at according concentrations or DMSO for 6 hours and then lysed with 6 M Urea at 4 °C for 20 minutes. The lysates were centrifuged for 15 minutes at 16000 g and the supernatant was collected to perform the Western-Blot.
(§3) Protein quantification was performed using nanodrop One. The SDS samples were prepared […]
(§4) The samples were separated by a BIS-TRIS polyacrylamide gel polyacrylamide gel, 100 V for 1:45) followed by transfer to PVDF membranes (Millipore) at 350 mA for 140 minutes. The membranes were blocked using 5%wt/vol BSA (in TBS-T, 20 mM Tris-HCl, pH 7.5, 150 mM NaCl and 0.1% (vol/vol) Tween 20) at room temperature for 1 hour.
(§5) The blots were incubated with respective primary antibodies at 1:1000 dilution (Cell Signaling technologies: Aurora A (D3E4Q), ITK (2F12) and GAPDH (D4C6R)) at 4 °C overnight. The blots were washed with TBS-T thrice and incubated with 1:5000 dilution of horseradish peroxidase (HRP)-labelled respective secondary antibodies (Cell Signaling technologies, Anti- […]
(§6) The blots were washed with TBS-T thrice and then incubated with chemiluminescent HRP substrate (Bio-Rad) for 2 minutes. The blots were imaged and the signals were detected using the Amersham ImageQuant 800 (Cytiva).
(§7) Cell culture. Human MV4-11 ([…]) and human Jurkat ([…]) cells were cultured in RPMI- […]
(§8) °C in 5% CO2. Both media were supplemented with 10% FBS and 1% penicillin/streptomycin. […]

AURKA = target: T2, AURKA (Homo sapiens, UniProt O14965); test: Western blot assay; assay type: cell-based; parameters: endogenous in cells; host or cells: Jurkat; settings: Jurkat cells, 6 h
T2 sequence (O14965 1-403): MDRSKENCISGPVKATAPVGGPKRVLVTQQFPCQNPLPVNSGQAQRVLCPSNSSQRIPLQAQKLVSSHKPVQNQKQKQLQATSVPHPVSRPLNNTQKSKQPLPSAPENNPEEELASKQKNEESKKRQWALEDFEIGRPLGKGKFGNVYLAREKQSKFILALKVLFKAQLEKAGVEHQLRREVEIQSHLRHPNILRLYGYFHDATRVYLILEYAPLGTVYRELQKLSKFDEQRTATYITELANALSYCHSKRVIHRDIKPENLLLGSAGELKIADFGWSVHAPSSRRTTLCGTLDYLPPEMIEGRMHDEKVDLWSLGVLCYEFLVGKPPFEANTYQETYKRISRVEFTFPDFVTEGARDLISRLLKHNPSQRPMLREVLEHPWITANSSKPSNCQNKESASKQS
Method: as §1, §2, §3, §4, §5, §6, §7, §8

AAK1 = target: T3, AAK1 (Homo sapiens, UniProt Q2M2I8); test: Kinobeads selectivity profiling; assay type: binding; settings: Jurkat lysate, dose series given in nM, read-out: Kd (apparent dissociation constant, corrected for protein depletion)
T3 construct: endogenous in cells; host or cells: Jurkat (Clone E6.1) cell lysate
T3 sequence (Q2M2I8 whole entry): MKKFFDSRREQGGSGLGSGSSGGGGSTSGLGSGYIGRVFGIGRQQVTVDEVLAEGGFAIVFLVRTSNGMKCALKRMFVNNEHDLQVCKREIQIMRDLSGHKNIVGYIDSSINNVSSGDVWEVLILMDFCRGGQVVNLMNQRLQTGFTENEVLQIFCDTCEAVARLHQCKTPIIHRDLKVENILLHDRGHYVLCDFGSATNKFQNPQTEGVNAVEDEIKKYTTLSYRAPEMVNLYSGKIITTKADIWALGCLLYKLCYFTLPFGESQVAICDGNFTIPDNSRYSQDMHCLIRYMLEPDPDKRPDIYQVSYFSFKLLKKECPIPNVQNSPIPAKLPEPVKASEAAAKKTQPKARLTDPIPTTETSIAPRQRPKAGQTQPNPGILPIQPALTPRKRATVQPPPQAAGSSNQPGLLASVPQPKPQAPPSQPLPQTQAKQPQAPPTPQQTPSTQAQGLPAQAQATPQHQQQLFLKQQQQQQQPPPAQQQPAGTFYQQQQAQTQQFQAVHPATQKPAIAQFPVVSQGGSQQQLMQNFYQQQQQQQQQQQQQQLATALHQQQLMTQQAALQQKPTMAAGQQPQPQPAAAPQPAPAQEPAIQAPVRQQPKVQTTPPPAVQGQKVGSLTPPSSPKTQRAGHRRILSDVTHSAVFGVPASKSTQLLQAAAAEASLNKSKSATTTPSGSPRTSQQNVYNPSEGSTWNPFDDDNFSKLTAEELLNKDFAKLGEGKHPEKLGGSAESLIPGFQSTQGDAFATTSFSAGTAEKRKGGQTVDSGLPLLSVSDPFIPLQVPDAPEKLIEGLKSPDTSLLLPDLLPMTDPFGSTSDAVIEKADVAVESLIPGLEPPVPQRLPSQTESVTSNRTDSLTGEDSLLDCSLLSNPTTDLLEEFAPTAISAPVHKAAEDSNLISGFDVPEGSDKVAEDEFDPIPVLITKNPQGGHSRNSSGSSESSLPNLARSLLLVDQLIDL
Method: (§9) Excitation and emission filters […]
(§10) curve. […] Measurements were
(§11) Kinobeads selectivity profiling of PROTACs
(§12) (Multiplexion, Heidelberg, Germany).
(§13) The cell lysate was ultracentrifuged and diluted
(§14) NaF, 1 mM DTT, protease inhibitors and phosphatase inhibitors to a final concentration of 5 mg/ml as determined by Bradford assay. For selectivity profiling of compounds the cell lysate (2.5 mg of total proteins per pulldown) was pre-incubated with increasing compound […]
(§15) µM) for 45 min at 4 °C in an end-over-end shaker. Subsequently, lysates were incubated with Kinobeads epsilon (17 µL settled beads) for 30 min at 4 °C. To assess the degree of protein depletion from the lysates by Kinobeads, the flow-through of the DMSO control was recovered […]
(§16) for a pulldown of pulldown experiment where the lysate was incubated a second time with fresh Kinobeads. Beads were washed in 3 steps with buffer containing 0.4%, 0.2% and no NP40.
(§17) Bound proteins were reduced with 50 mM DTT in 8 M Urea, 40 mM Tris-HCl pH 7.4 for 30 min at room temperature. After alkylation with 55 mM chloroacetamide (CAA), the Urea concentration was reduced to 1 – 2 M and proteins were digested using trypsin. Acidified peptides were desalted and concentrated using SepPak tC18 µEluation plates (Waters).
(§18) Samples were frozen, dried by vacuum centrifugation and stored at -20 °C.
(§19) LC-MS2 analysis. Peptides were measured on a Dionex Ultimate3000 nano HPLC coupled online to an Orbitrap Fusion Lumos (Thermo Fisher Scientific) mass spectrometer.
(§20) Peptides were dissolved in 0.1% formic acid and delivered to a trap column (ReproSil-pur C18-AQ, 5 μm, Dr. Maisch, 20 mm × 75 μm, self-packed) at a flow rate of 5 μL/min in LC solvent A (0.1 % formic acid).4 After 10 min of loading, peptides were transferred to an analytical column (ReproSil Gold C18-AQ, 3 μm, Dr. Maisch, 400 mm × 75 μm, self-packed) and separated using […]
(§21) acetonitrile) in LC solvent A.
(§22) The Orbitrap Fusion Lumos was operated as follows: positive polarity; spray voltage 2.1 kV, […]
(§23) A full-scan (MS1) was recorded from 360 to 1300 m/z with a resolution of 60,000 in the Orbitrap in profile mode. The MS1 AGC target was set to 4e5 and the maxIT was set to 50 ms, RF lens value was set to 50%. Based on the full scans, precursors were targeted for the MS/MS scans […]
(§24) intensity exceeded 2.5e4. The dynamic exclusion was set to 30 sec and exclude isotopes was switched on. The MS2 quadrupole isolation window was set to 1.7 m/z. Peptide fragmentation occurred in the ion routing multipole (IRM) by HCD with a fixed collision energy mode, the […]

ABL1 = target: T4, ABL1 (Homo sapiens, UniProt P00519); test: Kinobeads selectivity profiling; assay type: binding; settings: Jurkat lysate, dose series given in nM, read-out: Kd (apparent dissociation constant, corrected for protein depletion)
T4 construct: endogenous in cells; host or cells: Jurkat (Clone E6.1) cell lysate
T4 sequence (P00519 whole entry): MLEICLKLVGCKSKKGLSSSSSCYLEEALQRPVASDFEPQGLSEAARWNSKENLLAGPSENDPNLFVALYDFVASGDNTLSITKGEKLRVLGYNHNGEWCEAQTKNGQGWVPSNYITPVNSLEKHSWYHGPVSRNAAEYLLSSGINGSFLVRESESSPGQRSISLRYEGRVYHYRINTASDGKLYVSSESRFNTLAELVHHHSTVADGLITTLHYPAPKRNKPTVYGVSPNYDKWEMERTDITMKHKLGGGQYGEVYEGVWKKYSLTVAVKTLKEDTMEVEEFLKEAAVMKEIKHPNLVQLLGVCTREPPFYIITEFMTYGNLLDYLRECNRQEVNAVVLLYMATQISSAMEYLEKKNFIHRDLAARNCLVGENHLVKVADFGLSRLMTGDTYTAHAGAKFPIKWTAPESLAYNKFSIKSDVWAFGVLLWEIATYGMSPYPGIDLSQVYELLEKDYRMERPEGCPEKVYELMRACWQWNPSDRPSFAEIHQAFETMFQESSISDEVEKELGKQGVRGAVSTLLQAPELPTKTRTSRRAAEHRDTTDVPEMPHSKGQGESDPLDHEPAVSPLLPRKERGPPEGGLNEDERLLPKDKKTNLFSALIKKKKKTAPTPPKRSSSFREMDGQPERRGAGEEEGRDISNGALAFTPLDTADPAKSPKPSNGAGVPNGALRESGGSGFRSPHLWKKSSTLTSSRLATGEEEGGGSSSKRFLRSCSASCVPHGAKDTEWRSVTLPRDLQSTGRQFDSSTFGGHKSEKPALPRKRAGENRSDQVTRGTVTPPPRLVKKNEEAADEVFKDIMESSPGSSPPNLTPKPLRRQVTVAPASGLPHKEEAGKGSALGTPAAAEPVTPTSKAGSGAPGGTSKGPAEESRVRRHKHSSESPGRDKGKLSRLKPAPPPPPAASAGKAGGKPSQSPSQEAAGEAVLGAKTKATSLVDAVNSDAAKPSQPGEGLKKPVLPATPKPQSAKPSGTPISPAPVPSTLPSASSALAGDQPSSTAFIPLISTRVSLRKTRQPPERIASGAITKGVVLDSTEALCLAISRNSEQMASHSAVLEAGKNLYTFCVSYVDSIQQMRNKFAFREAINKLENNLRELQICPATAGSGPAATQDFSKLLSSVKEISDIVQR
Method: as §9, §10, §11, §12, §13, §14, §15, §16, §17, §18, §19, §20, §21, §22, §23, §24

full-length AAK1 = full-length AAK1 (Homo sapiens, UniProt Q2M2I8); test: NanoBRET target engagement assay, intact and permeabilized cells; settings: NanoBRET, mean of duplicates
Chain of full-length AAK1 (Q2M2I8 whole entry): as the sequence (Q2M2I8 whole entry) above
Method: Compounds were pipetted at various concentrations using an Echo acoustic dispenser (Labcyte), immediately followed by Tracer K10 (Promega, Tracer DB ID: T000008) for AAK1 and Aurora A and VHL Tracer (Promega, Tracer DB ID: T000019) for VHL, at an optimum KD concentration chosen from TracerDB ( tracerdb.org), respectively.
To measure the BRET signal, the NanoBRET® NanoGlo Substrate (Promega:
N1573) was added as per the manufacturer’s protocol, and filtered luminescence was measured on a PHERAstar plate reader (BMG Labtech) equipped with a luminescence filter pair (450 nm BP filter (donor) and 610 nm LP filter (acceptor)). For NanoBRET® measurement in permeabilized cells, 25 nL of digitonin (0.05 μg/μL) was pipetted into each well using an
After incubation, the BRET signals were measured by a PHERAstar plate reader (BMG Labtech) following the same procedure as intact NanoBRET® measurement. Competitive displacement data were then normalized to controls and were plotted using GraphPad Prism 9 software employing a normalized 3-parameter curve fit with the following equation:

Jurkat cells = test: CellTiterGlo cell viability assay; assay type: cell-based, human; settings: Homo sapiens, 24 h, mean of triplicates, ^b/^c values estimated, read-out: IC50±sd/μM (cell viability)
Method: The effects of the compounds on cell viability was determined using the CellTiter-Glo® 2.0 Cell Viability Assay (Promega: G9241) following manufacturer’s protocol. Ten µL of Jurkat cells at […]
After equilibration, PROTACs were titrated at various concentrations using an Echo acoustic […]
volume of CellTiter-Glo® 2.0 reagent (10 µL) was added to each well and cells were incubated for 10 minutes at room temperature. Filtered luminescence was measured on a PHERAstar plate reader (BMG Labtech) and data was evaluated using GraphPad Prism 9 software employing a normalized curve it with the following equation: Y=Bottom + (Top-Bottom)/(1+10(LogEC50-X) *HillSlope).
Sample preparation. Jurkat cells (ATCC © HTB-22) were cultured in RPMI (Thermo: […]

[1] = AAK1 intact (IC50±sd)/μM, intact cells, ^a values estimated by extrapolation
[2] = AAK1 permeabilized (IC50±sd)/μM, permeabilized cells

ITK protein levels (Western blot) (ITK) | AURKA protein levels (Western blot) (AURKA) | Kd (AAK1) | Kd (ABL1) | IC50 (full-length AAK1; [1]) | IC50 (full-length AAK1; [2]) | IC50 (Jurkat cells) | Structure (SMILES)
only weak degradation of ITK |  |  |  |  |  |  | COc1cc(C)c(Sc2cnc(NC(=O)c3ccc(N4CCN(CCCCCCCNC(=O)COc5cccc6c5C(=O)N(C5CCC(=O)NC5=O)C6=O)CC4)cc3)s2)cc1C(=O)N1CCN(C(C)=O)CC1 (centres unmarked) [BSJ-05–037, reference compound]
 | strong degradation |  |  |  |  |  | O=C(COc1cccc2c1C(=O)N(C1CCC(=O)NC1=O)C2=O)NCCOCCOCCNC(=O)C1(Cc2cccc(Nc3nccs3)n2)CCC(Oc2cccc(Cl)c2F)CC1 (centres unmarked) [JB300, reference compound]
 |  | 29.4 nM | 2970 nM | 0.005 µM | 0.003 µM |  | CC(C)(C)OC(=O)N1CCN(c2cc(Nc3cc(C4CC4)[nH]n3)nc(Nc3ccc(CC#N)cc3)n2)CC1 [compound 4]
 |  | 6.4 nM | 420 nM | 0.004 ± 0.001 µM | 0.004 µM | 0.7 ± 0.2 µM | NC(=O)c1ccccc1Nc1nc(Nc2ccc(N3CCNCC3)cc2)ncc1Cl [compound 6]
